From patent publication US4013794A, “O-alkyl-S-alkyl-O-phenyl phosphates and insecticidal and acaricidal method of use” (priority 1973, dated 1977)

What was measured:
warm-blooded animals = conditions: prior-art compounds; cited from earlier work
[1] = system: two-spotted spider mite (Tetranychus urticae); assay: Tetranychus test (resistant); format: in vivo; conditions: 48 h, after 2 days, read-out: Degree of destruction in % after 2 days; for mortality at 0.01 % strength: 0.01 % active compound concentration; for mortality at 0.1 % strength: 0.1 % active compound concentration
Procedure: Solvent: 3 parts by weight of acetone
Emulsifier: 1 part by weight of alkylaryl polyglycol ether
To produce a suitable preparation of active compound, 1 part by weight of the active compound was mixed with the stated amount of solvent and the stated amount of emulsifier and the concentrate was diluted with water to the desired concentration.
These bean plants were heavily infested with the two-spotted spider mite (Tetranychus urticae) in all stages of development.
After the specified periods of time, the effectiveness of the preparation of active compounds was determined by counting the dead mites. The degree of destruction thus obtained is expressed as a percentage: 100% means that all the spider mites were killed, whereas 0% means that none of the spider mites were killed.

[2] = Toxicity test (peroral), albino rat; conditions: in vivo, po, evaluation after 7 days, read-out: LD50 values (in mg/kg of body weight)
Procedure: Test animal: Albino rat (Rattus norvegicus)
To produce a suitable preparation of active compound, 3 parts by weight of active compound were mixed with 2.8 parts by weight of highly dispersible silica and 4.2 parts by weight of talc. Suspensions which contained, in 1 ml of liquid, the amount of active compound to be applied per 100 g of animal weight, were prepared from the above active-compound concentrate, with a little added powdered vegetable gum, by grinding with water. Dosing was effected volumetrically after weighing the test animals. A steel, knob-ended probe was used for oral administration. The evaluation was carried out in each case after the end of the above-mentioned time interval, calculated from the administration of the active compound.
The LD50 values (dose of active compound at which 50% of the treated animals were killed) were determined in the usual manner from the mortality figures of the doses, which were varied in geometrical progression.

[3] = system: fly larvae (Lucilia cuprina res.); assay: Test with parasitic fly larvae; format: in vivo; conditions: after 24 hours, read-out: Degree of destruction in %
Procedure: Solvent: 35 parts by weight of ethylene polyglycol monomethyl ether
Emulsifier: 35 parts by weight of nonylphenol polyglycol ether.
To produce a suitable preparation of active compound, 30 parts by weight of the active substance in question were mixed with the stated amount of solvent which contained the above-mentioned proportion of emulsifier and the concentrate thus obtained was diluted with water to the desired concentration.
About 20 fly larvae (Lucilia cuprina) were introduced into a test tube which contained approximately 2 ml of horse muscle. 0.5 ml of the preparation of active compound was applied to this horse meat. After 24 hours, the degree of destruction was determined in %. 100% means that all the larvae had been killed and 0% means that no larvae had been killed.

[4] = system: caterpillars of the diamond-back moth (Plutella maculipennis); assay: Plutella Test; format: in vivo; conditions: 72 h, after 3 days, read-out: Degree of destruction in % after 3 days; for mortality at 0.004 % strength: 0.004 % active compound; for mortality at 0.02 % strength: 0.02 % active compound; for mortality at 0.1 % strength: 0.1 % active compound; for mortality at 0.0008 % strength: 0.0008 % active compound
Procedure: (§1) Solvent: 3 parts by weight Acetone
(§2) Emulsifier: 1 part by weight Alkylaryl polyglycol ether
(§3) To produce a suitable preparation of active compound, 1 part by weight of the active compound is mixed with the stated amount of solvent and the stated amount of emulsifier and the concentrate is diluted with water to the desired concentration.
Cabbage leaves (Brassica oleracea) are sprayed with the preparation of the active compound until dew moist and are then infested with caterpillars of the diamond-back moth (Plutella maculipennis).
After the specified periods of time, the degree of destruction is determined as a percentage: 100 % means that all the caterpillars are killed whereas 0 % means that none of the caterpillars are killed.

[5] = system: larvae of mustard beetles (Phaedon cochleariae); assay: Phaedon-Larvae-Test; format: in vivo; conditions: in Brassica, 72 h, after 3 days, read-out: Degree of destruction in % after 3 days; for mortality at 0.004 % strength: 0.004 % active compound; for mortality at 0.02 % strength: 0.02 % active compound; for mortality at 0.1 % strength: 0.1 % active compound
Procedure: as §1, §2
To produce a suitable preparation of the particular active compound, 1 part by weight of such active compound is mixed with the stated amount of solvent and the stated amount of emulsifier, and the resulting concentrate is diluted with water to the desired final concentration.
Cabbage leaves (Brassica oleracea) are sprayed with the preparation of the given active compound until dripping wet and then infested with the larvae of mustard beetles (Phaedon cochleariae).
After specified periods of time, the degree of destruction is determined as a percentage: 100 % means that all the beetle larvae are killed, 0 % means that none of the beetle larvae are killed. The active compounds, the concentrations used, the evaluation time and the results obtained can be seen from the following Table 5: […]

[6] = system: peach aphids (Myzus persicae); assay: Myzus Test (contact action); format: in vivo; conditions: 24 h, after 1 day, read-out: Degree of destruction in % after 1 day; for mortality at 0.02 % strength: 0.02 % active compound; for mortality at 0.1 % strength: 0.1 % active compound
Procedure: as §1, §2, §3
Cabbage plants (Brassica oleracea) which have been heavily infested with peach aphids (Myzus persicae) are sprayed with the preparation of the active compound until dripping wet.
After the specified periods to time, the degree of destruction is determined as a percentage: 100 % means that all the aphids are killed whereas 0 % means that none of the aphids are killed.

## CCOP(=S)(OCC)Oc1ccc(S(=O)(=O)CCl)cc1 [Compound A, O,O-diethyl-O-(4-chloromethylsulfonylphenyl)-thionophosphoric acid ester]
warm-blooded animals
  toxicity towards warm-blooded animals: high toxicity

## CCOP(=S)(OCC)Oc1ccc(S(=O)(=O)CCl)cc1 [drawing 6, reference compound]
[1]
  mortality at 0.01 % strength: 0%
  mortality at 0.1 % strength: 50%

## CCCSP(=S)(OCC)Oc1ccc(S(=O)(=O)CCl)cc1Cl (stereo not drawn) [drawing 7]
[1]
  mortality at 0.01 % strength: 60%
  mortality at 0.1 % strength: 100%

## CCOP(=S)(OCC)Oc1ccc(S(=O)(=O)CCl)cc1 [drawing 8, reference compound]
[2]
  LD50 at 168 h: 2.5 to 5 mg/kg

## CCCSP(=S)(OCC)Oc1ccc(S(C)(=O)=O)cc1Cl (stereo not drawn) [drawing 9]
[2]
  LD50 at 168 h: 50 to 100 mg/kg

## CCCSP(=S)(OCC)Oc1ccc(S(C)(=O)=O)cc1Br (stereo not drawn) [drawing 10]
[2]
  LD50 at 168 h: 50 to 100 mg/kg

## CCCSP(=S)(OCC)Oc1ccc(S(=O)(=O)CCl)cc1 (stereo not drawn) [drawing 11]
[2]
  LD50 at 168 h: ~250 mg/kg

## CCCSP(=S)(OCC)Oc1ccc(S(=O)(=O)CCl)cc1Cl (stereo not drawn) [drawing 12]
[2]
  LD50 at 168 h: 100 to 250 mg/kg

## CCCSP(=S)(OCC)Oc1ccc(SC(F)C(=O)OCC)cc1 (stereo not drawn) [drawing 13]
[2]
  LD50 at 168 h: 100 to 250 mg/kg

## CCCSP(=S)(OCC)Oc1ccc(S(=O)(=O)CCl)cc1 (stereo not drawn) [drawing 14]
[3]
  mortality at 1 ppm: 0%
  mortality at 10 ppm: 100%
  mortality at 30 ppm: 100%
  mortality at 100 ppm: 100%

## CCCSP(=S)(OCC)Oc1ccc(S(C)(=O)=O)cc1Cl (stereo not drawn) [drawing 15]
[3]
  mortality at 1 ppm: 0%
  mortality at 10 ppm: 100%
  mortality at 30 ppm: 100%
  mortality at 100 ppm: 100%
[3]; 3 ppm
  mortality at 3 ppm: 100%

## CCCSP(=S)(OCC)Oc1ccc(SC(F)C(=O)OCC)cc1 (stereo not drawn) [drawing 16]
[3]
  mortality at 10 ppm: 0%
  mortality at 30 ppm: > 50%
  mortality at 100 ppm: 100%

## CCOP(=S)(Oc1ccc(S(C)(=O)=O)cc1)SC (stereo not drawn) [drawing 17, reference compound]
[4]
  mortality at 0.004 % strength: 0%
  mortality at 0.02 % strength: 85%
  mortality at 0.1 % strength: 100%

## CCCSP(=S)(OCC)Oc1ccc(S(C)(=O)=O)cc1 (stereo not drawn) [drawing 18]
[4]
  mortality at 0.004 % strength: 100%
  mortality at 0.02 % strength: 100%
  mortality at 0.1 % strength: 100%

## CCCSP(=S)(OCC)Oc1ccc(S(=O)(=O)CCl)cc1 (stereo not drawn) [drawing 19]
[4]
  mortality at 0.004 % strength: 100%
  mortality at 0.02 % strength: 100%
  mortality at 0.1 % strength: 100%

## CCCSP(=S)(OCC)Oc1ccc(S(C)(=O)=O)cc1Cl (stereo not drawn) [drawing 20]
[4]
  mortality at 0.0008 % strength: 100%
  mortality at 0.004 % strength: 100%
  mortality at 0.02 % strength: 100%
  mortality at 0.1 % strength: 100%

## CCCSP(=S)(OCC)Oc1ccc(Cl)cc1Cl (stereo not drawn) [drawing 21]
[4]
  mortality at 0.0008 % strength: 0%
  mortality at 0.004 % strength: 100%
  mortality at 0.02 % strength: 100%
  mortality at 0.1 % strength: 100%

## CCCSP(=S)(OCC)Oc1ccc(S(C)(=O)=O)cc1Br (stereo not drawn) [drawing 22]
[4]
  mortality at 0.0008 % strength: 90%
  mortality at 0.004 % strength: 100%
  mortality at 0.02 % strength: 100%
  mortality at 0.1 % strength: 100%

## CCCSP(=S)(OCC)Oc1ccc(Cl)cc1Cl (stereo not drawn) [drawing 23, reference compound]
[5]
  mortality at 0.004 % strength: 20%
  mortality at 0.02 % strength: 100%
  mortality at 0.1 % strength: 100%

## CCOP(=S)(Oc1ccc(S(C)(=O)=O)cc1)SC (stereo not drawn) [drawing 24]
[5]
  mortality at 0.004 % strength: 15%
  mortality at 0.02 % strength: 100%
  mortality at 0.1 % strength: 100%

## CCCSP(=S)(OCC)Oc1ccc(S(C)(=O)=O)cc1 (stereo not drawn) [drawing 25]
[5]
  mortality at 0.004 % strength: 100%
  mortality at 0.02 % strength: 100%
  mortality at 0.1 % strength: 100%

## CCCSP(=S)(OCC)Oc1ccc(S(C)(=O)=O)cc1Br (stereo not drawn) [drawing 26]
[5]
  mortality at 0.004 % strength: 100%
  mortality at 0.02 % strength: 100%
  mortality at 0.1 % strength: 100%

## CCOP(=S)(Oc1ccc(S(C)(=O)=O)cc1)SC (stereo not drawn) [drawing 27, reference compound]
[6]
  mortality at 0.02 % strength: 0%
  mortality at 0.1 % strength: 35%

## CCCSP(=S)(OCC)Oc1ccc(S(C)(=O)=O)cc1 (stereo not drawn) [drawing 28]
[6]
  mortality at 0.02 % strength: 60%
  mortality at 0.1 % strength: 100%

## CCCSP(=S)(OCC)Oc1ccc(S(C)(=O)=O)cc1Cl (stereo not drawn) [drawing 29]
[6]
  mortality at 0.02 % strength: 90%
  mortality at 0.1 % strength: 100%

## CCCSP(=S)(OCC)Oc1ccc(S(=O)(=O)CCl)cc1 (stereo not drawn) [drawing 30]
[6]
  mortality at 0.02 % strength: 70%
  mortality at 0.1 % strength: 100%

## CCCSP(=S)(OCC)Oc1ccc(S(=O)(=O)CCl)cc1Cl (stereo not drawn) [drawing 31]
[6]
  mortality at 0.02 % strength: 55%
  mortality at 0.1 % strength: 100%
